Assay type in all cases: cell-based
For experiment [1], the system named is GIST882, SA4 and GOT3 cell lines. In words: Cell viability assay (96 well, CellTiter-Glo, 72 hours). As to conditions: for synergy with Bcl-family inhibitor A-1155463 (in words): FIG. 2, cell line not stated; for synergy with DNMDP (in words): FIGS. 7-8. As to the method: Cell viability assay. Cells were plated on 96 Well White/Clear Tissue Culture Treated Plate (FALCON, 353377) 24 hours prior to medium change with drugs. Viabilities of cells in different treatments were evaluated 72 hours after treatment incubation with CellTiter-Glo® Luminescent Cell Viability Assay (G7572, Promega) following manufacturer's instruction. Reagent and cells stabilized to room temperature. Reagent added 100 μl/well, shaken for 2 minutes at room temperature and incubated for 10 min at room temperature before measuring the luminescence by using Hidex Sence microplate reader (Hidex oy). Growth medium was used to exclude background signal from the results.
(ATP-based viability assays read luminescence as a measure of living cells.)

Experiment [2] has as its system GIST882 cell line. Kind of experiment: High throughput drug sensitivity and resistance test (CellTiter-Glo, 72 hours). As to conditions: drug combined with BAY2666605 (40 nM) minus drug alone. The method in brief: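 GIST882 viability read by CellTiter-Glo after 72 h, normalized to 0.01% DMSO and 100 μmol/L benzethonium chloride. Compounds also combined with 40 nM BAY2666605. Four-parameter logistic curves; response as drug sensitivity score, with synergy as combination DSS minus single-agent DSS.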

Experiment [3] has as its system GIST882, SA4, and GOT3 cell lines. Kind of experiment: Drug combination testing with concentration matrices, SynergyFinder 2.0 (all three cell lines). As to conditions: drug concentration matrices and SynergyFinder 2.0, with or without Anagrelide. As to the method:
Drug combination testing with anagrelide and 12 selected drugs was performed as described above but with selected drugs using drug concentration matrices covering seven different concentrations with 3 replicate sample of each combinations and in two replicate assays. Synergy was assessed using an R package SynergyFinder 2.0 (Ianevski A, et al. 2020). The tool implements synergy scoring with four major reference models: HSA, Loewe, Bliss and ZIP models. The degree of a drug combination effect can be readily visualized as a synergy landscape map over the dose matrix and ZIP synergy score.

The test system of experiment [4] is GIST882, GOT3 and SA4 cell lines. Kind of experiment: High throughput drug sensitivity and resistance test, average over cell lines (BAY2666605 combination). The following applies: for Average DSS (aDSS): BAY2666605 combination, average of GIST882, SA4 and GOT3, aDSS higher than 3.0 = synergy; for synergy in high-throughput screening (in words): with anagrelide (GOT3, SA4) or BAY2666605 (GIST882, GOT3, SA4). The method in brief: (§1)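 Compounds were plated in 10-fold dilutions spanning a 10,000-fold range, alone or with anagrelide (100 nM; SA4, GOT3) or BAY2666605 (40 nM; GIST882, SA4, GOT3). Viability was read by CellTiter-Glo after 72 h and normalized to DMSO and benzethonium chloride controls. Responses were expressed as DSS from four-parameter fits, and the single-agent DSS was subtracted from the combination DSS.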

Experiment [5] has as its system GOT3 cell line. Kind of experiment: High throughput drug sensitivity and resistance test (CellTiter-Glo, 72 hours). The following applies: GOT3; for GOT3 cell line: DSS(combo (BAY2666605))-DSS(drug): drug combined with BAY2666605 (40 nM) minus drug alone; for GOT3 cell line: DSS(combo (anagrelide))-DSS(drug): drug combined with anagrelide hydrochloride (100 nM) minus drug alone. The method in brief:
as §1

Experiment [6] deals with SA4 cell line. The description is as above. The following applies: SA4; for SA4 cell line: DSS(combo (BAY2666605))-DSS(drug): drug combined with BAY2666605 (40 nM) minus drug alone; for SA4 cell line: DSS(combo (anagrelide))-DSS(drug): drug combined with anagrelide hydrochloride (100 nM) minus drug alone. The method in brief: as §1
For experiment [7], the system named is GOT3 and SA4 cell lines. Kind of experiment: High throughput drug sensitivity and resistance test, average over cell lines (anagrelide combination). As to conditions: anagrelide combination, average of SA4 and GOT3; aDSS higher than 3.0 = synergy. A digest of the protocol: as §1
Experiment [8] deals with GIST882 cell line. In words: Drug combination testing with concentration matrices, SynergyFinder 2.0. As to conditions: combination with anagrelide, seven-concentration matrices. As to the method: (§2) Drug combination testing with anagrelide and 12 selected drugs was performed as described above but with selected drugs using drug concentration matrices covering seven different concentrations with 3 replicate sample of each combinations and in two replicate assays. […] The tool implements synergy scoring with four major reference models: HSA, Loewe, Bliss and ZIP models. The degree of a drug combination effect can be readily visualized as a synergy landscape map over the dose matrix and ZIP synergy score.

Experiment [9] deals with GOT3 cell line. The description is as above. The following applies: combination with anagrelide, seven-concentration matrices. As to the method: as §2
Experiment [10] deals with SA4 cell line. The experiment is described as above. The following applies: combination with anagrelide, seven-concentration matrices. As to the method: as §2
[11] abbreviates: treated together with 3-hydroxy-anagrelide, FIGS. 5 and 6.
The mark [12] stands for this setting: treated together with Anagrelide, FIGS. 3 and 4.

This note sets out measurements from patent US20250041294A1, “Synergistic compositions for use in the treatment of cancer” (Sartar Therapeutics Oy, priority 2021, published 2025).

Take `O=C1CCc2cc(OCCCCc3nnnn3C3CCCCC3)ccc2N1` [Cilostazol]: the “synergy with Bcl-family inhibitor A-1155463 (in words)” value in experiment [1] is “does not show synergy”; in experiment [1] (listed as cilostazol), “not however achieved”.
As to `CC1(C)CCC(c2ccc(Cl)cc2)=C(CN2CCN(c3ccc(C(=O)NS(=O)(=O)c4ccc(N[C@H](CCN5CCOCC5)CSc5ccccc5)c(S(=O)(=O)C(F)(F)F)c4)cc3)CC2)C1` [Navitoclax, navitoclax], the “GIST882 cell line: DSS(combo (BAY2666605))-DSS(drug)” value (shortened to “GIST882 cell line”) in [2] was 20.7. In addition, the “efficacy in cell lines (in words)” value in [3] is reported as “significant efficacy in cell lines only when they were administered with Anagrelide”. The “Average DSS (aDSS)” value in experiment [4] came to 17.0; in experiment [7], 10. Further, in experiment [4], the “synergy in high-throughput screening (in words)” value was “synergistic”. Also, the “GOT3 cell line: DSS(combo (BAY2666605))-DSS(drug)” value in experiment [5] turned out to be 1.7. In experiment [5], the “GOT3 cell line: DSS(combo (anagrelide))-DSS(drug)” value is on record as 2.6. In addition, the “SA4 cell line: DSS(combo (BAY2666605))-DSS(drug)” value in experiment [6] was found to be 28.5. Besides, the “SA4 cell line: DSS(combo (anagrelide))-DSS(drug)” value in experiment [6] is given as 17.4. Moreover, the “synergy with DNMDP (in words)” value in experiment [1] is recorded as “showed synergy with DNMDP”. Further, the “cell viability, combination result (in words)” value in experiment [1] (setting [11]) and in experiment [1] (setting [12]) was “verified the result” throughout. In addition, the “Average ZIP synergy score” value in experiment [8] is 11.7; in experiment [9], 2.4; in experiment [10] it was 8.
With `Cc1c(-c2ccc(N3CCc4cccc(C(=O)Nc5nc6ccccc6s5)c4C3)nc2C(=O)O)cnn1CC12CC3CC(CC(C3)C1)C2` [A-1331852], the “GIST882 cell line” value in experiment [2] is recorded as 15.1. Also, the “efficacy in cell lines (in words)” value in experiment [3] is “significant efficacy in cell lines only when they were administered with Anagrelide”. In addition, the “Average DSS (aDSS)” value in experiment [4] came to 10.2; in experiment [7] it was 9.25. Further, in experiment [4], the “synergy in high-throughput screening (in words)” value is on record as “synergistic”. Moreover, the “GOT3 cell line: DSS(combo (BAY2666605))-DSS(drug)” value in experiment [5] was 2.8. Also, in [5], the “GOT3 cell line: DSS(combo (anagrelide))-DSS(drug)” value is reported as 3.6. Besides, the “SA4 cell line: DSS(combo (BAY2666605))-DSS(drug)” value in experiment [6] came out at 12.6. Also, the “SA4 cell line: DSS(combo (anagrelide))-DSS(drug)” value in [6] is 14.9. Moreover, the “Average ZIP synergy score” value in [8] is given as 9.6; in experiment [9], 11.6; in experiment [10] it was 11.1.
In the case of `CN(C)CC#Cc1ccc(OCCCc2sc(N3CCc4cccc(C(=O)Nc5nc6ccccc6s5)c4C3)nc2C(=O)O)c(F)c1` [A-1155463], the “GIST882 cell line” value in [2] turned out to be 23. Further, the “efficacy in cell lines (in words)” value in experiment [3] was “significant efficacy in cell lines only when they were administered with Anagrelide”. Further, the “Average DSS (aDSS)” value in [4] was determined as 8.8; in experiment [7], 14.85. Also, the “synergy in high-throughput screening (in words)” value in experiment [4] is recorded as “synergistic”. Besides, in [5], the “GOT3 cell line: DSS(combo (BAY2666605))-DSS(drug)” value was found to be 6.9. Also, the “GOT3 cell line: DSS(combo (anagrelide))-DSS(drug)” value in experiment [5] amounted to 7.5. In addition, the “SA4 cell line: DSS(combo (BAY2666605))-DSS(drug)” value in [6] was −3.6. Moreover, the “SA4 cell line: DSS(combo (anagrelide))-DSS(drug)” value in [6] is 22.2. In addition, the “synergy with DNMDP (in words)” value in experiment [1] is “showed synergy with DNMDP”. The “cell viability, combination result (in words)” value in [1] (setting [11]) and in [1] (setting [12]) was “verified the result” throughout. In addition, the entries for the “Average ZIP synergy score” value in [8], in [9] and in [10] were 15.5, 12.7 and 11.1, respectively.
